Measured values from BindingDB's records for doi:10.1002/cbic.201200272 (Yonsei University, 2012).

The compounds below were run against T1, Pancreatic alpha-amylase (Sus scrofa, UniProt P00690) (assay: Enzymatic Activity Assay). Conditions: pH 7; 37 °C.
T1 sequence (P00690 whole entry): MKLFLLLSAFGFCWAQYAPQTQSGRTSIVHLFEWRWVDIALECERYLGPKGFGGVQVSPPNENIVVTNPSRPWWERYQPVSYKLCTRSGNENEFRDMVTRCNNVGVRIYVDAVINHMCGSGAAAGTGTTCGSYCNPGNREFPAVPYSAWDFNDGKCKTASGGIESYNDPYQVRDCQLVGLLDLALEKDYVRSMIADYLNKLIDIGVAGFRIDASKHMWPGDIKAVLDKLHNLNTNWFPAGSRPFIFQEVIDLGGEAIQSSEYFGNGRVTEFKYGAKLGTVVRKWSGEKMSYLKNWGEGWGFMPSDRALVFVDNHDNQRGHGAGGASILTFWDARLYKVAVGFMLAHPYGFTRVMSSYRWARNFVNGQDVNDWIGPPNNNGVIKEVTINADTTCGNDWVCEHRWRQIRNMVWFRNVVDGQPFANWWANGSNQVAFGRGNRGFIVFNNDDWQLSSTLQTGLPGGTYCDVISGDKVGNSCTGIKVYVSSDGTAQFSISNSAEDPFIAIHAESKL
Description: To test whether GCTs share a common binding pocket on PPA with acarbose, we performed an experiment according to the method of Yonetani and Theorell.
An IC50 of 125 µM and a Ki of 234 µM were found for `CO[C@@H]1O[C@H](Cn2cc(COC(C)=O)nn2)[C@@H]2OC(C)(C)OC12` (some centres not stated) [GPESB11] in this work.
An IC50 of 88.9 µM and a Ki of 204 µM were found for `OC1[C@H](O)O[C@H](Cn2cc(-c3ccccc3)nn2)[C@@H]1O` (some centres not stated) [GPESB14] in this work.
An IC50 of 150 µM and a Ki of 342 µM were found for `CO[C@@H]1O[C@H](Cn2cc(C3=CCCCC3)nn2)[C@@H]2OC(C)(C)OC12` (some centres not stated) [GPESB02] in this work.
An IC50 of 361 µM and a Ki of 780 µM were found for `CO[C@@H]1O[C@H](Cn2cc(-c3ccccc3)nn2)[C@@H]2OC(C)(C)OC12` (some centres not stated) [GPESB01] in this work.
An IC50 of 356 µM and a Ki of 1010 µM were found for `CO[C@@H]1O[C@H](Cn2cc(C3(O)CCCCC3)nn2)[C@@H]2OC(C)(C)OC12` (some centres not stated) [GPESB07] in this work.
An IC50 of 35.8 µM and a Ki of 33.6 µM were found for `OC1[C@H](O)O[C@H](Cn2cc(C3=CCCCC3)nn2)[C@@H]1O` (some centres not stated) [GPESB15] in this work.
